Reference: ChEMBL document CHEMBL5634119, “Design and synthesis of 4th generation EGFR inhibitors against human triple (Del19/T790M/C797S) mutation” (Eur J Med Chem, 2023)

Legend:
[1] = Inhibition of wild type EGFR in mouse BAF3 cells assessed as reduction in cell proliferation incubated for 3 days by celltiter-glo assay; assay type: cell-based; conditions: BaF3, 72 h
[2] = Inhibition of EGFR del19/T790M/C797S triple mutant in mouse BAF3 cells assessed as reduction in cell proliferation incubated for 3 days by celltiter-glo assay; assay type: cell-based; conditions: BaF3, 72 h
[3] = test system: HCC827; test: Antiproliferative activity against human HCC827 cells harboring EGFR Del19 mutant incubated for 72 hrs by SRB assay; assay type: functional, cell-based; conditions: HCC827, 72 h
[4] = Inhibition of ERK phosphorylation in human A-431 cells harboring wild type EGFR incubated for 6 hrs by Western blot analysis; assay type: cell-based; conditions: A-431, 6 h
[5] = Inhibition of AKT phosphorylation in human A-431 cells harboring wild type EGFR incubated for 6 hrs by Western blot analysis; assay type: cell-based; conditions: A-431, 6 h
[6] = test system: NCI-H1975; test: Antiproliferative activity against human NCI-H1975 cells harboring EGFR L858R/T790M/C797S mutant incubated for 72 hrs by SRB assay; assay type: functional, cell-based; conditions: NCI-H1975, 72 h
[7] = test system: A-431; test: Antiproliferative activity against human A-431 cells harboring wild type EGFR incubated for 72 hrs by SRB assay; assay type: functional, cell-based; conditions: A-431, 72 h
[8] = Inhibition of ERK phosphorylation in human PC-9 cells harboring Del19/T790M/C797S mutant incubated for 6 hrs by Western blot analysis; assay type: cell-based; conditions: PC-9, 6 h
[9] = test system: PC-9; test: Antiproliferative activity against human PC-9 cells harboring EGFR Del19/T790M/C797S mutant incubated for 72 hrs by SRB assay; assay type: functional, cell-based; conditions: PC-9, 72 h
[10] = test system: NCI-H1975; test: Antiproliferative activity against human NCI-H1975 cells harboring EGFR L858R/T790M mutant incubated for 72 hrs by SRB assay; assay type: functional, cell-based; conditions: NCI-H1975, 72 h
[11] = Inhibition of AKT phosphorylation in human PC-9 cells harboring Del19/T790M/C797S mutant incubated for 6 hrs by Western blot analysis; assay type: cell-based; conditions: PC-9, 6 h

SMILES	IC50 [1] [nM]	IC50 [2] [nM]	other results
CN(c1ccccc1Nc1nc(Nc2ccc(N3CCC(N4CCN(C5CC5)CC4)CC3)c(F)c2)nc2[nH]ccc12)S(C)(=O)=O	815	213	–
COc1cc(Nc2nc(Nc3ccccc3N(C)S(C)(=O)=O)c3cc[nH]c3n2)ccc1N1CCN(C)CC1	41.4	36.7	–
CN1CCN(c2ccc(Nc3nc(Nc4ccccc4NS(C)(=O)=O)c4cc[nH]c4n3)cc2F)CC1	2640	125	–
CC(C)N1CCN(C2CCN(c3ccc(Nc4nc(Nc5ccccc5N(C)S(C)(=O)=O)c5cc[nH]c5n4)cc3F)CC2)CC1	620	82.4	–
CN(c1ccccc1Nc1nc(Nc2ccc(N3CCN(C4CC4)CC3)c(F)c2)nc2[nH]ccc12)S(C)(=O)=O	790	383	–
CC(C)S(=O)(=O)N(C)c1ccccc1Nc1nc(Nc2ccc(N3CCN(C)CC3)c(F)c2)nc2[nH]ccc12	185	49	–
Cc1cc(Nc2nc(Nc3ccccc3N(C)S(C)(=O)=O)c3cc[nH]c3n2)ccc1N1CCN(C)CC1	41.7	30.8	–
CCCN1CCN(C2CCN(c3ccc(Nc4nc(Nc5ccccc5N(C)S(C)(=O)=O)c5cc[nH]c5n4)cc3F)CC2)CC1	754	84.2	–
CCN(c1ccccc1Nc1nc(Nc2ccc(N3CCN(C)CC3)c(F)c2)nc2[nH]ccc12)S(C)(=O)=O	203	36.6	–
CCCN1CCN(c2ccc(Nc3nc(Nc4ccccc4N(C)S(C)(=O)=O)c4cc[nH]c4n3)cc2F)CC1	687	142	–
CN1CCN(c2ccc(Nc3nc(Nc4ccccc4N(C)S(C)(=O)=O)c4cc[nH]c4n3)cc2)CC1	120	28.4	–
CN1CCN(c2ccc(Nc3nc(Nc4ccccc4N(C)S(C)(=O)=O)c4cc[nH]c4n3)c(F)c2)CC1	202	157	–
COc1cc(N2CCC(N3CCN(C)CC3)CC2)ccc1Nc1ncc(Cl)c(Nc2ccccc2P(C)(C)=O)n1 [BRIGATINIB]	782	227	IC50 [3]: 282 nM; IC50 [4]: 5830 nM; IC50 [5]: 3330 nM; IC50 [6]: 1130 nM; IC50 [7]: 540 nM; IC50 [8]: 3730 nM; IC50 [9]: 838 nM; IC50 [10]: 380 nM; IC50 [11]: 984 nM
C=CC(=O)Nc1cc(Nc2nccc(-c3cn(C)c4ccccc34)n2)c(OC)cc1N(C)CCN(C)C [OSIMERTINIB]	13.5	1240	–
